Measured values from patent US11925629B2, “Heterocyclic inhibitors of ERK1 and ERK2 and their use in the treatment of cancer” (Asana Biosciences, LLC, priority 2015, dated 2024).

Columns and labels:
Format in all cases: cell-based, human
[1] = test system: HCT116 (colorectal carcinoma, K Ras G13D) cells; assay: Cell proliferation (Alamar Blue) assay, HCT116; conditions: Homo sapiens, HCT-116, HCT116 cells
Outline: (§1)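 Cells seeded at 5000/well and allowed 16-24 h at 37° C./5% CO2, then exposed to compound (typically 0.0005-10 uM, 3-fold serial dilutions) for 72 h. Viability was read by Alamar Blue fluorescence (ex 540/em 590 nm) after 1-3 h. IC50 came from a variable-slope sigmoidal dose-response fit.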

[2] = test system: phosphorylation of RSK1(S380) (the downstream target of ERK1/2); assay: Phospho-RSK1(S380) ELISA assay in HT-29 cells; conditions: Homo sapiens, HT-29, HT29 cells, phospho-RSK1(S380); read-out: Mechanistic Cell Assay RSK1 Phos HT29 IC50
Description: Phospho-RSK1(S380) ELISA Assay
HT-29 cells (colorectal carcinoma, B-RafV600E); obtained from ATCC, USA) were seeded (60,000 cells/well) in a 96-well plate and incubated at 37° C./5% CO2 overnight and then treated with desired compound dilutions for 2 h. Medium was removed and cells were rinsed once with ice-cold 1×PBS, then 0.070 mL ice-cold 1× cell lysis buffer containing 1 mM PMSF was added to each well and the plate was incubated on a shaker for 2 h and 30 min at 4° C. The plate was then centrifuged for 20 min (×4000 rpm) at 4° C. and the supernatant was transferred to a new plate. Cell lysates were diluted with sample diluent at a ratio of 1:1. The ELISA was then carried out following the manufacturer's protocol (PathScan® phospho-RSK1(Ser380) Sandwich ELISA Kit, Cell Signaling Technologies). The plate was read at 450 nm within 30 min after adding STOP solution. The IC50 values were subsequently determined using a sigmoidal dose-response curve (variable slope) in GraphPad Prism® 5 software.

[3] = test system: HT-29 (colorectal carcinoma, B-RafV600E) cells; assay: Cell proliferation (Alamar Blue) assay, HT-29; conditions: Homo sapiens, HT-29, HT29 cells
Outline: as §1

Compound | IC50 [1] [nM] | IC50 [2] [nM] | IC50 [3] [nM]
Cc1ccc(C(CO)NC(=O)c2cn(-c3nc(NC4CCOCC4)ncc3C)cn2)s1 (stereo not shown) [Example 261, N-(2-hydroxy-1-(5-methylthiophen-2-yl)ethyl)-1-(5-methyl-2-((tetrahydro-2H-pyran-4-yl)amino)pyrimidin-4-yl)-1H-imidazole-4-carboxamide] | > 2500 | 500 to 2500 | –
Cc1cnc(Nc2ccc(F)cc2)cc1-n1cnc(C(=O)NC(CN)c2ccccc2)c1 (stereo not shown) [Compound #191, N-(2-amino-1-phenylethyl)-1-(2-((4-fluorophenyl)amino)-5-methylpyridin-4-yl)-1H-imidazole-4-carboxamide] | – | 100 to 250 | –
CC(=O)NCC(NC(=O)c1ccn(-c2cc(Nc3ccc(F)cc3)ncc2C)c1)c1ccccc1 (stereo not shown) [Example 135, N-(2-acetamido-1-phenylethyl)-1-(2-((4-fluorophenyl)-amino)-5-methyl-pyridin-4-yl)-1H-pyrrole-3-carboxamide] | – | 500 to 2500 | –
Cc1cnc(NC2CCOCC2)nc1-n1cnc(C(=O)NCc2sccc2CN)c1 [Example 294, N-((3-(aminomethyl)thiophen-2-yl)methyl)-1-(5-methyl-2-((tetrahydro-2H-pyran-4-yl)amino)pyrimidin-4-yl)-1H-imidazole-4-carboxamide] | – | > 2500 | –
O=C(NC(CO)c1cccc(Cl)c1)c1ccn(-c2ccnc(NC3CCNC3)c2)c1 (stereo not shown) [Example 145, N-(1-(3-chloro-phenyl)-2-hydroxy-ethyl)-1-(2-(pyrrolidin-3-ylamino)pyridin-4-yl)-1H-pyrrole-3-carboxamide] | – | > 2500 | –
Cc1cnc(NC2CCN(C)CC2)nc1-n1cnc(C(=O)N[C@H](CO)c2cccc(Cl)c2)c1 [Example 296, (S)-N-(1-(3-chlorophenyl)-2-hydroxyethyl)-1-(5-methyl-2-((1-methylpiperidin-4-yl)amino)pyrimidin-4-yl)-1H-imidazole-4-carboxamide] | – | 500 to 2500 | –
CN1CCN(c2ccc(Nc3nccc(-n4cc(NC(=O)N[C@H](CO)c5cccc(Cl)c5)cn4)n3)cc2)CC1 [Example 22, (S)-1-(1-(3-chlorophenyl)-2-hydroxy-ethyl)-3-(1-(2-((4-(4-methyl-piperazin-1-yl)-phenyl)amino)pyrimidin-4-yl)-1H-pyrazol-4-yl)urea] | > 2500 | – | > 2500
Cc1cnc(NC2CCOCC2)nc1-n1cnc(C(=O)NC(CO)c2ccsc2)c1 (stereo not shown) [Example 234, N-(2-hydroxy-1-(thiophen-3-yl)ethyl)-1-(5-methyl-2-((tetrahydro-2H-pyran-4-yl)amino)pyrimidin-4-yl)-1H-imidazole-4-carboxamide] | – | 500 to 2500 | –
Cc1cnc(NC2CC2)nc1-n1cc(C(=O)N[C@H](CO)c2cccc(Cl)c2)cn1 [Cmpd 39, (S)-N-(1-(3-chlorophenyl)-2-hydroxy-ethyl)-1-(2-(cyclopropyl-amino)-5-methyl-pyrimidin-4-yl)-1H-pyrazole-4-carboxamide] | > 2500 | – | > 2500
Cc1cnc(Nc2ccc(F)cc2)cc1-n1cnc(C(=O)NC(CN)c2ccc(F)cc2)c1 (stereo not shown) [Example 230, N-(2-amino-1-(4-fluorophenyl)ethyl)-1-(2-((4-fluorophenyl)amino)-5-methylpyridin-4-yl)-1H-imidazole-4-carboxamide] | > 2500 | – | 500 to 2500
O=C(Nc1cnn(-c2ccnc(Nc3ccccc3Cl)n2)c1)N[C@@H](CO)c1ccccc1 [Example 4, (R)-1-(1-(2-((2-chlorophenyl)amino)pyrimidin-4-yl)-1H-pyrazol-4-yl)-3-(2-hydroxy-1-phenylethyl) urea] | > 2500 | – | > 2500
Cc1cnc(Nc2ccc3c(c2)OC(F)(F)O3)cc1-n1cnc(C(=O)NC(CO)c2cccc(Cl)c2)c1 (stereo not shown) [Example 90, N-(1-(3-chlorophenyl)-2-hydroxy-ethyl)-1-(2-((2,2-difluoro-benzo[d][1,3]dioxol-5-yl)amino)-5-methyl-pyridin-4-yl)-1H-imidazole-4-carboxamide] | > 2500 | – | > 2500
Cc1cnc(NC2CCOCC2)nc1-n1cnc(C(=O)N[C@H](CO)c2cc(F)cc(Cl)c2)c1 [Example 295, (S)-N-(1-(3-chloro-5-fluorophenyl)-2-hydroxyethyl)-1-(5-methyl-2-((tetrahydro-2H-pyran-4-yl)amino)pyrimidin-4-yl)-1H-imidazole-4-carboxamide] | – | ≤ 100 | –
Cc1cnc(Nc2ccc(N3CCNCC3)cc2)cc1-n1ccc(C(=O)NC(CO)c2ccccc2)c1 (stereo not shown) [Example 83, N-(2-hydroxy-1-phenylethyl)-1-(5-methyl-2-((4-(piperazin-1-yl)-phenyl)amino)-pyridin-4-yl)-1H-pyrrole-3-carboxamide] | > 2500 | – | > 2500
Cc1cnc(Nc2ccc(F)cc2Cl)cc1-n1cnc(C(=O)NC(CO)c2ccccc2)c1 (stereo not shown) [Example 85, 1-(2-((2-chloro-4-fluorophenyl)amino)-5-methyl-pyridin-4-yl)-N-(2-hydroxy-1-phenylethyl)-1H-imidazole-4-carboxamide] | > 2500 | – | > 2500
O=C(NC(CO)c1cccc(Cl)c1)c1ccn(-c2ccnc(Nc3ccccc3)c2)c1 (stereo not shown) [Example 46, N-(1-(3-chloro-phenyl)-2-hydroxy-ethyl)-1-(2-(phenyl-amino)pyridin-4-yl)-1H-pyrrole-3-carboxamide] | > 2500 | – | > 2500

Other lines, results leading:

IC50 [1] [nM] | IC50 [2] [nM] | IC50 [3] [nM] | Compound
– | 250 to 500 | – | Cc1cnc(Nc2ccc(F)cc2Cl)nc1-n1ccc(C(=O)N[C@H](CO)c2cccc(Cl)c2)c1 [Cmpd 29, (S)-1-(2-((2-chloro-4-fluorophenyl)-amino)-5-methyl-pyrimidin-4-yl)-N-(1-(3-chlorophenyl)-2-hydroxy-ethyl)-1H-pyrrole-3-carboxamide]
> 2500 | – | > 2500 | Cc1cnc(Nc2ccc3c(c2)OCO3)cc1-n1cnc(C(=O)NC(CO)c2cccc(Cl)c2)c1 (stereo not shown) [Example 88, 1-(2-(benzo[d][1,3]dioxol-5-ylamino)-5-methyl-pyridin-4-yl)-N-(1-(3-chloro-phenyl)-2-hydroxy-ethyl)-1H-imidazole-4-carboxamide]
> 2500 | – | > 2500 | Cc1cnc(NC2CCOCC2)nc1-n1ccc(C(=O)NC(CO)c2ccccc2)c1 (stereo not shown) [Example 120, N-(2-hydroxy-1-phenylethyl)-1-(5-methyl-2-((tetrahydro-2H-pyran-4-yl)amino)pyrimidin-4-yl)-1H-pyrrole-3-carboxamide]
> 2500 | – | > 2500 | Cc1cnc(Nc2ccc3c(c2)OCO3)nc1-n1cc(NC(=O)N[C@H](CO)c2cccc(Cl)c2)cn1 [Example 44, (S)-1-(1-(2-(benzo[d][1,3]dioxol-5-ylamino)-5-methyl-pyrimidin-4-yl)-1H-pyrazol-4-yl)-3-(1-(3-chloro-phenyl)-2-hydroxy-ethyl)urea]
> 2500 | – | > 2500 | Cc1cnc(Nc2ccc3c(c2)OCO3)nc1-n1cc(C(=O)NC(CO)c2cccc(Cl)c2)cn1 (stereo not shown) [Example 41, 1-(2-(benzo[d][1,3]dioxol-5-ylamino)-5-methyl-pyrimidin-4-yl)-N-(1-(3-chloro-phenyl)-2-hydroxy-ethyl)-1H-pyrazole-4-carboxamide]
> 2500 | – | > 2500 | Cc1cnc(Nc2ccc3c(c2)OCO3)nc1-n1cc(NC(=O)N[C@@H](CO)c2cccc(Cl)c2)cn1 [Example 51, (R)-1-(1-(2-(benzo[d][1,3]dioxol-5-ylamino)-5-methyl-pyrimidin-4-yl)-1H-pyrazol-4-yl)-3-(1-(3-chloro-phenyl)-2-hydroxy-ethyl)urea]
> 2500 | – | > 2500 | Cc1cn(-c2nc(Nc3ccc(F)cc3)ncc2C)cc1C(=O)NC(CO)c1ccccc1 (stereo not shown) [Example 108, 1-(2-((4-fluoro-phenyl)amino)-5-methyl-pyrimidin-4-yl)-N-(2-hydroxy-1-phenylethyl)-4-methyl-1H-pyrrole-3-carboxamide]
> 2500 | – | > 2500 | Cc1cnc(Nc2ccc3c(c2)OCO3)nc1-n1ccc(C(=O)NC(CO)c2cccnc2)c1 (stereo not shown) [Example 103, 1-(2-(benzo[d][1,3]dioxol-5-ylamino)-5-methyl-pyrimidin-4-yl)-N-(2-hydroxy-1-(pyridin-3-yl)ethyl)-1H-pyrrole-3-carboxamide]
> 2500 | – | > 2500 | Cc1cnc(Nc2ccccc2Cl)nc1-n1cc(NC(=O)N[C@H](CO)c2cccc(Cl)c2)cn1 [Cmpd 2, (S)-1-(1-(3-chlorophenyl)-2-hydroxyethyl)-3-(1-(2-((2-chloro-phenyl)amino)-5-methylpyrimidin-4-yl)-1H-pyrazol-4-yl)urea]
> 2500 | – | > 2500 | Cc1cnc(Nc2ccc3ocnc3c2)nc1-n1ccc(C(=O)NC(CO)c2ccccc2)c1 (stereo not shown) [Example 104, 1-(2-(benzo[d]oxazol-5-ylamino)-5-methyl-pyrimidin-4-yl)-N-(2-hydroxy-1-phenylethyl)-1H-pyrrole-3-carboxamide]
500 to 2500 | – | > 2500 | Cc1cnc(Nc2ccc3c(c2)OCO3)nc1-n1cc(NC(=O)NC(CO)c2cccc(Cl)c2)cn1 (stereo not shown) [Example 37, 1-(1-(2-(benzo[d][1,3]dioxol-5-ylamino)-5-methyl-pyrimidin-4-yl)-1H-pyrazol-4-yl)-3-(1-(3-chlorophenyl)-2-hydroxy-ethyl)urea]
